Our source for the IC50 and EC50 values is patent US11401278B2, “Macrocyclic indole derivatives” (The Broad Institute, Inc., priority 2017, dated 2022).

For data set [1], the system named is SUDHL10. Kind of data set: Induction of cytotoxicity (Assay 6), SUDHL10. The settings on record: read-out: Cytotox SUDHL10 [M] (median) IC50, CellTiter-Glo, 5 hours, SUDHL10.
The target in a further data set is MCL-1 (Homo sapiens (Human), UniProt Q07820, K194A/K197A/R201A). Description: Protein-protein interaction assay MCL-1/Noxa BH3 peptide (MCL-1 assay, TR-FRET). The data set is classed as binding. The settings on record: MBP-MCL-1 / Noxa BH3 peptide, median. In short, it runs like this:
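TR-FRET competition assay read at 665/620 nm, with a Noxa BH3 tracer peptide (1 nM) plus Eu-cryptate anti-MBP and XL665-streptavidin. Compounds (0.1 nM-20 μM, duplicates) were pre-equilibrated 10 min at 22° C with 1 nM MBP-MCL-1 (173-329) in Tris pH 7, NaCl, KF, DTT buffer, then incubated 1 h at 22° C and overnight at 4° C. IC50 came from 4-parameter regression.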

Data set [2] deals with SUDHL10. Kind of data set: Induction of caspase-3/7 activity (Assay 4), SUDHL10. The data set is classed as cell-based. The settings on record: caspase-3/7 induction, median. An outline of the steps:
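DLBCL cells were exposed to compounds for 3 hours at 37 °C, then caspase-3/7 activation was read with Caspase-Glo 3/7 reagent. After subtracting medium-only background, EC50s were derived with fixed C0=1 and the reference compound's maximal induction as plateau.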

SMILES strings stand for the structures. Where a name gives a salt, the structure may show the parent alone. Read-outs that look alike come from different tables or passages of the source.

As usually defined, the IC50 is the concentration that gives 50% inhibition. As usually defined, the EC50 is the concentration needed to bring the measured effect to its halfway point.

Sequence of MCL-1 (Q07820 whole entry K194A/K197A/R201A, looked up): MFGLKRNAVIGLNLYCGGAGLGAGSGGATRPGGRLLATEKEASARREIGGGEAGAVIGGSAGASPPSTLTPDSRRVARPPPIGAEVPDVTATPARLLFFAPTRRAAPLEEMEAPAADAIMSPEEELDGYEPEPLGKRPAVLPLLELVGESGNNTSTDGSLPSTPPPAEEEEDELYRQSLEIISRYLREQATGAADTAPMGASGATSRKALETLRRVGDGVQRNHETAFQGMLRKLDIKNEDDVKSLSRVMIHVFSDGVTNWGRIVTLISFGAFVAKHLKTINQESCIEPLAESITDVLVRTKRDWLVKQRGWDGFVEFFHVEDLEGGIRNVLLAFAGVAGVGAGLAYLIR

As for `CCc1c2c(nn1C)CN(CC)S(=O)(=O)CCCn1c(C(=O)O)c(CCCOc3cccc4cc(F)ccc34)c3ccc(Cl)c-2c31` (racemic) [Example 56, (rac)-4-chloro-3,14-diethyl-7-{3-[(6-fluoro-1-naphthyl)oxy]propyl}-2-methyl-11,12,14,15-tetrahydro-2H,10H-pyrazolo[3′,4′:4,5][1,2,8]thiadiazacycloundecino[6,7,8-hi]indole-8-carboxylic acid 13,13-dioxide], the IC50 was determined as 2.5e-07 M in the data set on SUDHL10 [1] (Homo sapiens, SU-DHL10, 5 h) and 2.1 nM against MCL-1. In the data set with SUDHL10 [2] (Homo sapiens, SU-DHL10, 3 h), this compound displayed an EC50 of 160 nM.
For `Cc1c2c(nn1C)CN(C)S(=O)(=O)CCCn1c(C(=O)O)c(CCCOc3cccc4ccccc34)c3ccc(F)c-2c31` (racemic) [Example 26, (rac)-13-Fluoro-8,11,12-trimethyl-1-(3-(naphthalen-1-yloxy)propyl)-5,6,9,11-tetrahydro-4H,8H-pyrazolo[3′,4′:4,5][1]thia[2,8]diazacycloundecino[6,7,8-hi]indole-2-carboxylic acid 7,7-dioxide], in that order: 3.4e-06 M, 3.6 nM and 3500 nM.
Consider `CCc1c2c(nn1C)CN(CCN1CCOCC1)S(=O)(=O)CCCn1c(C(=O)O)c(CCCOc3cccc4cc(F)ccc34)c3ccc(Cl)c-2c31` [Example 77, (rac)-13-chloro-12-ethyl-1-(3-((6-fluoronaphthalen-1-yl)oxy)propyl)-11-methyl-8-(2-morpholinoethyl)-5,6,9,11-tetrahydro-4H,8H-pyrazolo[3′,4′:4,5][1]thia[2,8]diazacycloundecino[6,7,8-hi]indole-2-carboxylic acid 7,7-dioxide], for which the concentration for half-maximal inhibition (IC50) in the data set with SUDHL10 [1] (Homo sapiens, SU-DHL10, 5 h) was determined as 1.3e-05 M; on MCL-1, 6.2 nM. Also, the EC50 in the data set on SUDHL10 [2] (Homo sapiens, SU-DHL10, 3 h) was 14000 nM.
For `Cc1c2c(nn1C)CN(C)S(=O)(=O)CCCn1c(C(=O)O)c(CCCOc3cccc4c3CCC4)c3ccc(F)c-2c31` (racemic) [Example 27, (rac)-1-(3-((2,3-Dihydro-1H-inden-4-yl)oxy)propyl)-13-fluoro-8,11,12-trimethyl-5,6,9,11-tetrahydro-4H,8H-pyrazolo[3′,4′:4,5][1]thia[2,8]diazacycloundecino[6,7,8-hi]indole-2-carboxylic acid 7,7-dioxide] the same measures were 2.1e-06 M, 2.1 nM and 2400 nM.
On to `Cc1c2c(nn1C)C(CCN1CCOCC1)N(C)S(=O)(=O)CCCn1c(C(=O)O)c(CCCOc3cccc4ccccc34)c3cccc-2c31` (single isomer, unassigned; enantiomer 2) [Example 46, 2,3,14-trimethyl-15-[2-(morpholin-4-yl)ethyl]-7-{3-[(naphthalen-1-yl)oxy]propyl}-13,13-dioxo-10,11,12,13,14,15-hexahydro-2H-13lambda^6-pyrazolo[3′,4′:4,5][1,2,8]thiadiazacycloundecino[6,7,8-hi]indole-8-carboxylic acid N-ethylethanamine Salt (Enantiomer 2)], for which the IC50 in the data set with SUDHL10 [1] is 6.1e-07 M; at MCL-1 it was 0.31 nM. For the same compound, the midpoint of the response in the data set on SUDHL10 [2] (3 hours), the EC50, lay at 380 nM.
`COc1ccc(CN2Cc3nn(C)c(C)c3-c3c(Cl)ccc4c(CCCOc5cccc6cc(F)ccc56)c(C(=O)O)n(c34)CCCS2(=O)=O)c(OC)c1` (racemic) [Example 49, (rac)-4-chloro-14-(2,4-dimethoxybenzyl)-7-{3-[(6-fluoro-1-naphthyl)oxy]propyl}-2,3-dimethyl-11,12,14,15-tetrahydro-2H,10H-pyrazolo[3′,4′:4,5][1,2,8]thiadiazacycloundecino[6,7,8-hi]indole-8-carboxylic acid 13,13-dioxide]: the IC50 in the data set on SUDHL10 [1] (Homo sapiens, SU-DHL10, 5 h) is 2.2e-07 M; on MCL-1 it was 3.2 nM. The compound further had an EC50 with SUDHL10 [2] (Homo sapiens, SU-DHL10, 3 h) of 270 nM.
With `CCc1c2c(nn1C)CN(C)S(=O)(=O)CCCn1c(C(=O)O)c(CCCOc3cccc4c3CCC4)c3ccc(F)c-2c31` (racemic) [Example 32, (rac)-1-(3-((2,3-Dihydro-1H-inden-4-yl)oxy)propyl)-12-ethyl-13-fluoro-8,11-dimethyl-5,6,9,11-tetrahydro-4H,8H-pyrazolo[3′,4′:4,5][1]thia[2,8]diazacycloundecino[6,7,8-hi]indole-2-carboxylic acid 7,7-dioxide], the half-inhibitory concentration (IC50) with SUDHL10 [1] (Homo sapiens, SU-DHL10, 5 h) is 1.2e-06 M; against MCL-1, 1.5 nM. The same compound gave an EC50 in the data set with SUDHL10 [2] (Homo sapiens, SU-DHL10, 3 h) of 1100 nM.
As to `CCc1c2c(nn1C)C(CCN1CCOCC1)N(C)S(=O)(=O)CCCn1c(C(=O)O)c(CCCOc3cccc4cc(F)ccc34)c3ccc(Cl)c-2c31` (racemic) [Example 73, (rac)-(4-chloro-3-ethyl-7-{3-[(6-fluoronaphthalen-1-yl)oxy]propyl}-2,14-dimethyl-15-[2-(morpholin-4-yl)ethyl]-13,13-dioxo-10,11,12,13,14,15-hexahydro-2H-13lambda^6-pyrazolo[3′,4′:4,5][1,2,8]thiadiazacycloundecino[6,7,8-hi]indole-8-carboxylic acid (Racemate 1)], at MCL-1, the 50% inhibitory concentration (IC50) came to 0.34 nM. The EC50 at SUDHL10 [2] (3 hours) was determined as 230 nM.
Take `CCc1c2c(nn1C)CNS(=O)(=O)CCCn1c(C(=O)O)c(CCCOc3cccc4ccccc34)c3cccc-2c31` (racemic) [Example 17, (rac)-12-Ethyl-11-methyl-1-(3-(naphthalen-1-yloxy)propyl)-4,5,6,8,9,11-hexahydropyrazolo[3′,4′:4,5][1,2,8]thiadiazacycloundecino[6,7,8-hi]indole-2-carboxylic acid 7,7-dioxide]: the IC50 was 1.6e-05 M in the data set on SUDHL10 [1] (Homo sapiens, SU-DHL10, 5 h) and 8.1 nM against MCL-1. Further, the concentration for a half-maximal effect (EC50) in the data set with SUDHL10 [2] (Homo sapiens, SU-DHL10, 3 h) was determined as 21000 nM.
Take `Cc1c2c(nn1C)CN(C)S(=O)(=O)CCCn1c(C(=O)O)c(CCCOc3cccc4c3CCCC4)c3ccc(F)c-2c31` (racemic) [Example 29, (rac)-13-Fluoro-8,11,12-trimethyl-1-(3-((5,6,7,8-tetrahydronaphthalen-1-yl)oxy)propyl)-5,6,9,11-tetrahydro-4H,8H-pyrazolo[3′,4′:4,5][1]thia[2,8]diazacycloundecino[6,7,8-hi]indole-2-carboxylic acid 7,7-dioxide]: the IC50 turned out to be 3.8e-06 M with SUDHL10 [1] (Homo sapiens, SU-DHL10, 5 h) and 3.1 nM at MCL-1. The compound further displayed an EC50 with SUDHL10 [2] (Homo sapiens, SU-DHL10, 3 h) of 4500 nM.
With `CCc1c2c(nn1C)CN(CC)S(=O)(=O)CCCn1c(C(=O)O)c(CCCOc3cccc4cc(F)ccc34)c3ccc(Cl)c-2c31` (single isomer, unassigned; enantiomer 1) [Example 57, (+)-4-chloro-3,14-diethyl-7-{3-[(6-fluoronaphthalen-1-yl)oxy]propyl}-2-methyl-13,13-dioxo-10,11,12,13,14,15-hexahydro-2H-13lambda^6-pyrazolo[3′,4′:4,5][1,2,8]thiadiazacycloundecino[6,7,8-hi]indole-8-carboxylic acid N-ethylethanamine Salt (Enantiomer 1)], the IC50 worked out at 1.4e-07 M with SUDHL10 [1] and 0.48 nM at MCL-1. The EC50 with SUDHL10 [2] (3 hours) amounted to 110 nM.
For `CCc1c2c(nn1C)CN(C1CC1)S(=O)(=O)CCCn1c(C(=O)O)c(CCCOc3cccc4cc(F)ccc34)c3ccc(Cl)c-2c31` (single isomer, unassigned; enantiomer 1) [Example 54, (−)-4-chloro-14-cyclopropyl-3-ethyl-7-{3-[(6-fluoronaphthalen-1-yl)oxy]propyl}-2-methyl-13,13-dioxo-10,11,12,13,14,15-hexahydro-2H-13lambda^6-pyrazolo[3′,4′:4,5][1,2,8]thiadiazacycloundecino[6,7,8-hi]indole-8-carboxylic acid N-ethylethanamine Salt (Enantiomer 1)] the same measures were 6.5e-07 M, 0.64 nM and 520 nM.
Consider `CCc1c2c(nn1C)CN(CCCN1CCCC1=O)S(=O)(=O)CCCn1c(C(=O)O)c(CCCOc3cccc4ccccc34)c3cccc-2c31` (racemic) [Example 13, (rac)-12-Ethyl-11-methyl-1-(3-(naphthalen-1-yloxy)propyl)-8-(3-(2-oxopyrrolidin-1-yl)propyl)-5,6,9,11-tetrahydro-4H,8H-pyrazolo[3′,4′:4,5][1]thia[2,8]diazacycloundecino[6,7,8-hi]indole-2-carboxylic acid 7,7-dioxide], for which the half-inhibitory concentration (IC50) in the data set on SUDHL10 [1] (Homo sapiens, SU-DHL10, 5 h) is 1.7e-05 M; against MCL-1, 6.3 nM. In the data set on SUDHL10 [2] (Homo sapiens, SU-DHL10, 3 h), this compound gave an EC50 of 16000 nM.
For `CCc1c2c(nn1C)C(CCC1CCOCC1)N(C)S(=O)(=O)CCCn1c(C(=O)O)c(CCCOc3cccc4cc(F)ccc34)c3ccc(Cl)c-2c31` (racemic) [Example 60, (rac)-4-chloro-3-ethyl-7-{3-[(6-fluoro-1-naphthyl)oxy]propyl}-2,14-dimethyl-15-[2-(tetrahydro-2H-pyran-4-yl)ethyl]-11,12,14,15-tetrahydro-2H,10H-pyrazolo[3′,4′:4,5][1,2,8]thiadiazacycloundecino[6,7,8-hi]indole-8-carboxylic acid 13,13-dioxide (Racemate 1)], the 50% inhibitory concentration (IC50) in the data set with SUDHL10 [1] was 3.9e-08 M; on MCL-1, 2.4 nM. In the data set with SUDHL10 [2] (3 hours), the response was half-maximal at 32 nM (EC50).
As to `Cc1c2c(nn1C)CN(C)S(=O)(=O)CCCn1c(C(=O)O)c(CCCOc3cccc4ccccc34)c3ccc(Cl)c-2c31` (single isomer, unassigned; enantiomer 2) [Example 6, 4-Chloro-2,3,14-trimethyl-7-{3-[(naphthalen-1-yl)oxy]propyl}-13,13-dioxo-10,11,12,13,14,15-hexahydro-2H-13λ^6-pyrazolo[3′,4′:4,5][1,2,8]thiadiazacycloundecino[6,7,8-hi]indole-8-carboxylic acid-N-ethylethanamine salt (Enantiomer 2)], the IC50 with SUDHL10 [1] was found to be 1.7e-05 M; against MCL-1, 11 nM. In the data set with SUDHL10 [2] (3 hours), this compound yielded an EC50 of 14000 nM.
